System: HeLa viability, CellTiter-Glo ATP luminescence, 8-48 h
Test: cytotoxicity in HeLa cervical cancer cells – cell-based, CellTiter-Glo ATP luminescence, 8-48 h, dry powder, mechanism study for HRAS target identification, late-stage follow-up (AID 720609)

Structure (SMILES) | AC50 (measured here: AC50 at 8 h) [µM] | AC50 (measured here: AC50 at 24 h) [µM] | AC50 (measured here: AC50 at 48 h) [µM]
COc1ccc(N(C(=O)CCl)C(C(=O)NCCc2ccccc2)c2cccs2)cc1Cl (stereo not drawn) | 0.725 | 0.323 | 0.699
CC(C)(C)OC(=O)NCCOCCOCCOc1ccc(N(C(=O)CCl)C(C(=O)NCCc2ccccc2)c2cccs2)cc1Cl (stereo not drawn) | 0.515 | 0.564 | 0.946
CCC(=O)N(c1ccc(OC)c(Cl)c1)C(C(=O)NCCc1ccccc1)c1cccs1 (stereo not drawn) | – | > 70 | –
C#CCCCC(=O)NCCOCCOCCOc1ccc(N(C(=O)CCl)C(C(=O)NCCc2ccccc2)c2cccs2)cc1Cl (stereo not drawn) | 6.1 | 3.1 | 4.79
COC(=O)c1ccc([C@@H]2c3[nH]c4ccccc4c3C[C@@H](C(=O)OC)N2C(=O)CCl)cc1 | 0.512 | 0.609 | 0.602

From PubChem BioAssay AID720609 (Broad Institute, 2013)
